Laboratory results as given in paper PMC6792352, “Limited Chemical Structural Diversity Found to Modulate Thyroid Hormone Receptor in the Tox21 Chemical Library” (Environmental Health Perspectives, 2019).
Where a name gives a salt, the structure may show the parent alone.

assay: in vitro; settings: rat, gh3-tre-luc cells, AC50 (uM) modified / 1000

| Structure (SMILES) | CC50 at 24 h [µM] |
| --- | --- |
| O=C1OC2(c3ccccc31)c1cc(Br)c(O)c(Br)c1Oc1c2cc(Br)c(O)c1Br [2',4',5',7'-Tetrabromofluorescein] | 5.55 |
| O=[N+]([O-])C1(Br)COCOC1 [5-Bromo-5-nitro-1,3-dioxane] | 11.8 |
| COc1cc(C(=O)OCCCN2CCCN(CCCOC(=O)c3cc(OC)c(OC)c(OC)c3)CC2)cc(OC)c1OC [Dilazep] | 7.82 |
| Cc1c(O)cccc1O [2-Methyl-1,3-benzenediol] | > 90 |
| COCCCN [3-Methoxypropylamine] | > 90 |
| O=C1c2ccccc2C(=O)C1(O)O [Ninhydrin] | > 90 |
| Cc1cc(O)c(C(C)(C)C)cc1C(C)(C)C [4,6-Di-tert-butyl-m-cresol] | 22.6 |
| COc1c2c(cc3c1OCO3)CCN(C)C2 [Hydrocotarnine hydrobromide] | > 20 |
| Cc1cccc(Nc2cc(Cl)nc(SCC(=O)O)n2)c1C [Pirinixic acid] | > 90 |
| CC1=NNC(=O)N(/N=C/c2cccnc2)C1 [Pymetrozine] | > 90 |
| Cc1ccc(-c2c(Cl)nc(C#N)n2S(=O)(=O)N(C)C)cc1 [Cyazofamid] | 40.3 |
| O=C(c1ccccc1)C1CCC1 [Cyclobutyl phenyl ketone] | > 90 |
| CC(C)OC(=O)CCCCC(=O)OC(C)C [Diisopropyl adipate] | > 90 |
| CC(O)Cn1cnc2c1c(=O)n(C)c(=O)n2C (centres unmarked) [Proxyphylline] | > 20 |
| CCCCCCOC(=O)CC(CC(=O)OCCCCCC)(OC(=O)CCC)C(=O)OCCCCCC [Butyryl trihexyl citrate] | > 90 |
| Nc1ccccc1-c1ccccc1 [2-Biphenylamine] | > 90 |
| O=C(O)c1ccc2[nH]cc(CCCCN3CC=C(c4ccccc4)CC3)c2c1 [Carmoxirole] | > 50 |
| O=C1C(CC[S+]([O-])c2ccccc2)C(=O)N(c2ccccc2)N1c1ccccc1 (centres unmarked) [Sulfinpyrazone] | > 20 |
| CCN(C=O)CC [Diethylformamide] | > 90 |
| NCc1cccnc1 [3-(Aminomethyl)pyridine] | > 90 |
| OC[C@@H](O)[C@@H](O)[C@H](O)[C@@H](O)CO [D-Glucitol] | > 90 |
| C=CC(=O)OCCN(C)C [2-(Dimethylamino)ethyl acrylate] | > 90 |
| CC(O)(P(=O)(O)O)P(=O)(O)O [Etidronic acid] | > 90 |
| O=C(O)CCCCCCCCC(=O)O [Decanedioic acid] | > 90 |

| Structure (SMILES) | CC50 at 24 h [µM] |
| --- | --- |
| c1cc(-c2ccncc2)ccn1 [4,4'-Bipyridine] | > 90 |
| C=CCCCCCCCCCCCC [1-Tetradecene] | > 90 |
| CC(C)(C)c1csc(-c2cc3cc(OCc4ccccc4CC(=O)O)ccc3o2)n1 [FR150011] | 79.7 |
| CN1CCN(C(=O)O[C@H]2c3nccnc3C(=O)N2c2ccc(Cl)cn2)CC1 [Eszopiclone] | > 50 |
| COC(C)OC [1,1-Dimethoxyethane] | > 90 |
| CCCCCCCCOC(=O)c1cc(O)c(O)c(O)c1 [Octyl gallate] | 2.6 |
| O=C1CCC(=O)O1 [Succinic anhydride] | > 90 |
| CC(C)(C)OC(=O)c1ccccc1C(=O)O [tert-Butyl hydrogen phthalate] | > 90 |
| Cc1ccc(C(=O)c2ccc(CC(=O)O)n2C)cc1 [Tolmetin sodium dihydrate] | > 20 |
| CCN(CC)C(=O)c1cccnc1 [N,N-Diethylnicotinamide] | > 50 |
| O=c1[nH]c2ccccc2n1CCCN1CCC(n2c(=O)[nH]c3cc(Cl)ccc32)CC1 [Domperidone] | 40.2 |
| O=C(CC(=O)c1ccccc1)c1ccccc1 [1,3-Diphenyl-1,3-propanedione] | > 100 |
| O=C1CCCCCCCCCCC1 [Cyclododecanone] | > 90 |
| CC#CCC(C)[C@H](O)/C=C/[C@@H]1[C@H]2C/C(=C/CCCC(=O)O)C[C@H]2C[C@H]1O (some centres unmarked) [Iloprost] | > 50 |
| COc1ccc(N)c(OC)c1 [2,4-Dimethoxyaniline hydrochloride] | > 50 |
| CCOC(=O)CCCCCCCCC(=O)OCC [Diethyl decanedioate] | > 90 |
| CCCCCCCC/C=C\CCCCCCCC(=O)OCC [Ethyl oleate] | > 90 |
| O=C(O[C@@H](C(=O)O)[C@@H](OC(=O)c1ccccc1)C(=O)O)c1ccccc1 [Dibenzoyl-L-tartaric acid] | > 90 |
| O=c1cc(-c2ccccc2)oc2ccccc12 [Flavone] | > 90 |
| OC[C@H]1O[C@@H](OCCc2ccc(O)cc2)[C@H](O)[C@@H](O)[C@@H]1O [Salidroside] | > 50 |
| CC(=O)OC(C)OC(=O)C(C)c1ccc(-c2ccccc2)c(F)c1 (centres unmarked) [Flurbiprofen axetil] | > 50 |
| O=[N+]([O-])c1ccc(CBr)cc1 [4-Nitrobenzylbromide] | > 100 |
| NC(=O)C1c2ccccc2CCc2ccccc21 [Cyheptamide] | > 50 |
| O=C(/C=C/c1cccc(F)c1)NC1CC1 [Cinflumide] | > 50 |

| Structure (SMILES) | CC50 at 24 h [µM] |
| --- | --- |
| Nc1ccc(C=Cc2ccc(N)cc2S(=O)(=O)O)c(S(=O)(=O)O)c1 [4,4'-Diamino-2,2'-stilbenedisulfonic acid] | > 50 |
| C=CC1CC=CCC1 (centres unmarked) [4-Vinylcyclohexene] | > 90 |
| CN1COCN(Cc2cnc(Cl)s2)/C1=N/[N+](=O)[O-] [Thiamethoxam] | > 90 |
| Cc1ccc(Cl)c(Nc2ccccc2C(=O)O)c1Cl [Meclofenamate sodium] | > 50 |
| CNCCC(Oc1ccccc1OC)c1ccccc1 (centres unmarked) [Nisoxetine] | 38.3 |
| CCCc1ccccc1 [Propylbenzene] | > 90 |
| CCN[C@H]1C[C@H](C)S(=O)(=O)c2sc(S(N)(=O)=O)cc21 [Dorzolamide hydrochloride] | > 50 |
| Cc1nc2c([nH]1)c(=O)n(C)c(=O)n2Cc1ccco1 [Furafylline] | > 50 |
| CC(C)(C)NCC(O)c1cc(O)cc(O)c1 (centres unmarked) [Terbutaline hemisulfate] | > 50 |
| CN(C)C(=O)Nc1ccc(Cl)c(Cl)c1 [Diuron] | > 90 |
| CC1(C)[C@H](C=C(Cl)Cl)[C@H]1C(=O)OCc1c(F)c(F)cc(F)c1F [Transfluthrin] | > 50 |
| CC(C)(C)c1cc(CO)cc(C(C)(C)C)c1O | 82.2 |
| Nc1ccccc1 [Anilinium nitrate] | > 50 |
| CCCCCCCCCCCCCCCCCC[N+](C)(C)C [N,N,N-Trimethyloctadecan-1-aminium chloride] | 13.4 |
| C=C1c2cccc(O)c2C(O)=C2C(=O)[C@]3(O)C(O)=C(C(N)=O)C(=O)[C@@H](N(C)C)[C@@H]3[C@@H](O)[C@H]12 [Methacycline hydrochloride] | > 20 |
| Clc1ccc(COC(Cn2ccnc2)c2ccc(Cl)cc2Cl)c(Cl)c1 (centres unmarked) [Miconazole] | 15 |
| Cc1nnc2n1-c1sc(Br)cc1C(c1ccccc1Cl)=NC2 [Brotizolam] | 32.6 |
| O=C(O)CCCCC(=O)O [Hexanedioic acid] | > 90 |
| COC(=O)C1CCC(C(=O)OC)CC1 (centres unmarked) [Dimethyl hexahydroterephthalate] | > 90 |
| O=[N+]([O-])/C=C/c1ccccc1 [(E)-beta-Nitrostyrene] | 13.7 |
| O=[N+]([O-])c1cc(C(F)(F)F)c(Cl)c([N+](=O)[O-])c1Cl [2,4-Dichloro-1,3-dinitro-5-(trifluoromethyl)benzene] | 2.31 |
| N#C[C@@H]1C[C@@H]2C[C@@H]2N1C(=O)[C@@H](N)C12CC3CC(CC(O)(C3)C1)C2 [Saxagliptin] | > 50 |

same assay, conditions: rat, gh3-tre-luc cells, AC50 (uM) modified / 1000, Tox21_110001=Tox21_111183; viability, 1 nM T3 present, 24 h

| Structure (SMILES) | CC50 at 24 h [µM] |
| --- | --- |
| CN1C[C@H](C(=O)N[C@]2(C)O[C@@]3(O)[C@@H]4CCCN4C(=O)[C@H](Cc4ccccc4)N3C2=O)C=C2c3cccc4[nH]cc(c34)C[C@H]21 [Ergotamine D-tartrate] | > 50 |

same assay, conditions: rat, gh3-tre-luc cells, AC50 (uM) modified / 1000, Tox21_110001=Tox21_112877; viability, 1 nM T3 present, 24 h

| Structure (SMILES) | CC50 at 24 h [µM] |
| --- | --- |
| CC(C)=CCN1CC[C@@]2(C)c3cc(O)ccc3C[C@@H]1[C@@H]2C [(-)-Pentazocine succinate] | 34.4 |

same assay, conditions: rat, gh3-tre-luc cells, AC50 (uM) modified / 1000, Tox21_110001=Tox21_200857; viability, 1 nM T3 present, 24 h

| Structure (SMILES) | CC50 at 24 h [µM] |
| --- | --- |
| NC(N)=[Se] [Selenourea] | > 90 |

same assay, conditions: rat, gh3-tre-luc cells, AC50 (uM) modified / 1000, Tox21_110001=Tox21_201433; viability, 1 nM T3 present, 24 h

| Structure (SMILES) | CC50 at 24 h [µM] |
| --- | --- |
| O=C(CCl)CCl [1,3-Dichloropropanone] | 32.6 |

same assay, conditions: rat, gh3-tre-luc cells, AC50 (uM) modified / 1000, Tox21_110001=Tox21_201705; viability, 1 nM T3 present, 24 h

| Structure (SMILES) | CC50 at 24 h [µM] |
| --- | --- |
| CN1C[C@H](C(=O)N[C@]2(C)O[C@@]3(O)[C@@H]4CCCN4C(=O)[C@H](Cc4ccccc4)N3C2=O)C=C2c3cccc4[nH]cc(c34)C[C@H]21 [Ergotamine D-tartrate] | > 90 |

same assay, conditions: rat, gh3-tre-luc cells, AC50 (uM) modified / 1000, Tox21_110001=Tox21_202017; viability, 1 nM T3 present, 24 h

| Structure (SMILES) | CC50 at 24 h [µM] |
| --- | --- |
| CCOC(=O)CC(SP(=O)(OC)OC)C(=O)OCC (centres unmarked) [Malaoxon] | > 90 |

same assay, conditions: rat, gh3-tre-luc cells, AC50 (uM) modified / 1000, Tox21_110001=Tox21_202460; viability, 1 nM T3 present, 24 h

| Structure (SMILES) | CC50 at 24 h [µM] |
| --- | --- |
| O=C(O)CC[N+](=O)[O-] [3-Nitropropionic acid] | > 90 |

same assay, conditions: rat, gh3-tre-luc cells, AC50 (uM) modified / 1000, Tox21_110001=Tox21_301853; viability, 1 nM T3 present, 24 h

| Structure (SMILES) | CC50 at 24 h [µM] |
| --- | --- |
| COCC(=O)N(c1c(C)cccc1C)N1CCOC1=O [Oxadixyl] | > 90 |

same assay, conditions: rat, gh3-tre-luc cells, AC50 (uM) modified / 1000, Tox21_110001=Tox21_302209; viability, 1 nM T3 present, 24 h

| Structure (SMILES) | CC50 at 24 h [µM] |
| --- | --- |
| CCOP(=S)(OCC)Oc1cc(-c2ccccc2)on1 [Isoxathion] | > 90 |

same assay, conditions: rat, gh3-tre-luc cells, AC50 (uM) modified / 1000, Tox21_110001=Tox21_302262; viability, 1 nM T3 present, 24 h

| Structure (SMILES) | CC50 at 24 h [µM] |
| --- | --- |
| CNP(=O)(OC)Oc1ccc(C(C)(C)C)cc1Cl (centres unmarked) [Crufomate] | > 90 |

same assay, conditions: rat, gh3-tre-luc cells, AC50 (uM) modified / 1000, Tox21_110001=Tox21_302809; viability, 1 nM T3 present, 24 h

| Structure (SMILES) | CC50 at 24 h [µM] |
| --- | --- |
| O=C(CCl)CCl [1,3-Dichloropropanone] | 27.3 |

same assay, conditions: rat, gh3-tre-luc cells, AC50 (uM) modified / 1000, Tox21_110001=Tox21_302850; viability, 1 nM T3 present, 24 h

| Structure (SMILES) | CC50 at 24 h [µM] |
| --- | --- |
| CN(N=O)C(N)=O [N-Nitroso-N-methylurea] | > 90 |

same assay, conditions: rat, gh3-tre-luc cells, AC50 (uM) modified / 1000, Tox21_110001=Tox21_303182; viability, 1 nM T3 present, 24 h

| Structure (SMILES) | CC50 at 24 h [µM] |
| --- | --- |
| CN1C[C@H](C(=O)N[C@]2(C)O[C@@]3(O)[C@@H]4CCCN4C(=O)[C@H](Cc4ccccc4)N3C2=O)C=C2c3cccc4[nH]cc(c34)C[C@H]21 [Ergotamine D-tartrate] | > 40 |
